Test results: US20150025019A1, “Method for Dosage Adjustment of Drugs that Prevent Elastic Fiber Breakdown” (priority 2013, published 2015)
Entries after “also recorded” stand apart in the source; their conditions may differ.

What was measured:
elastic fiber breakdown = assay: Illustrative examples of titrating aerosolized hyaluronan by sputum desmosine and isodesmosine level; format: in vivo, human
Protocol: Examples of the use of the invention to titrate treatment with aerosolized hyaluronan are given below:
1) A patient with pulmonary emphysema is found to have an abnormally high level of sputum desmosine and isodesmosine (20 nanograms/gram protein compared to a normal level of less than 5 nanograms/g protein), and begins treatment with a dose of 0.1% hyaluronan that is inhaled for 20 minutes once daily in the morning. After 1 month, the sputum desmosine and isodesmosine level is measured and found to be 10 nanograms/g of protein in the sputum, which is more than twice the upper limit of normal. The patient is then switched to a twice daily inhalation for 20 minutes in the morning and evening. Two weeks later, the patient's sputum desmosine and isodesmosine level has fallen to 1 nanogram/g of protein, which is within the normal range. Their treatment is therefore left unchanged and sputum desmosine and isodesmsoine levels are measured at monthly intervals to ensure that the drug remains effective in preventing elastic fiber breakdown.
2) A patient with a history of smoking is tested for sputum desmosine and isodesmosine levels. They are found to have a mildly elevated level of 6 nanograms/g protein, and is placed on low dose hyaluronan, involving a single daily 20 minute inhalation of 0.05% hyaluronan. Two weeks later, their sputum desmosine and isodesmosine level is 1 nanogram/g protein, which is within the normal range. Based on this finding, their treatment is lowered to a 20 minute inhalation of hyaluronan every other day. Two weeks later, their sputum desmosine and isodesmsoine level has risen to 6 nanograms/g protein, which is above the upper limit of normal. Their treatment regimen is therefore returned to a 20 minute inhalation every day. Two weeks later, their sputum desmosine and isodesmosine level has fallen to 1 nanogram/g protein. Their treatment needs no further modification, and sputum desmosine and isodesmosine levels are measured at monthly intervals to ensure that the drug remains effective in preventing elastic fiber breakdown.

[1] = test system: pulmonary emphysema induced by tobacco smoke; conditions: mice exposed to tobacco smoke over a 6-month period; cited from earlier work
[2] = therapy in cystic fibrosis; cited from earlier work
[3] = test system: emphysema induced by elastase enzymes; conditions: animals; aerosol; cited from earlier work
elastin degradation = assay: Desmosine and isodesmosine concentrations in sputum, plasma and urine of COPD patients in the clinical trial; format: in vivo, human; conditions: 2 weeks of hyaluronan aerosol; for Levels of desmosine and isodesmosine in sputum: all 6 patients who provided sputum samples
Protocol: (§1) With this background, efforts continue to develop hyaluronan aerosol as a potential therapy for chronic obstructive pulmonary disease (COPD) related to alpha-1 antitrypsin deficiency (AATD) and not related to AATD. As part of that development this clinical safety trial was conducted in 11 COPD patients, 8 of whom received hyaluronan and 3 received placebo. The study protocol was conducted under IND number 70299. The primary aim of the study was to establish safety and to evaluate biomarker activity with respect to body and lung elastin degradation.
(§2) Each patient self-administered 0.01% hyaluronan from a vialed volume of 3 ml by aerosol from a compressor-delivered Pari nebulizer, morning and night for 14 days. The primary endpoints to assess safety were adverse events, oxygen saturation, spirometry, lung volumes, physical examination, vital signs, electrocardiogram and laboratory evaluations (CBC, serum chemistries and urinalysis). Additionally, desmosine and isodesmosine concentrations in sputum, plasma and urine were measured to assess a possible effect on elastin degradation (44, 45)
Sputum samples collected from patients with emphysema and other inflammatory lung diseases are chemically degraded to separate the component amino acids of elastic fibers and other proteins. This procedure may involve hydrolyzing the sample with an acid such as HCl or a base such as NaOH, according to procedures well known to the art. The resulting hydrolysate is then measured for total elastin-specific amino acids, desmosine and isodesmosine, using a variety of procedures, including liquid chromatography or immunoassay, ultraviolet spectroscopy, fluorescence spectroscopy, mass spectrometry, or other spectroscopic techniques well-known to the art.
Desmosine and isodesmosine content of the sputum sample is then normalized to one or more parameters, such as total protein, albumin, or free amino acids, according to procedures well known to the art. The final value is expressed as total desmosine/isodesmosine per unit volume, protein, albumin, amino acids or other relevant parameter. Results obtained from the same patient over time may be used to determine variations in the amount of lung elastic fiber injury.

elastin fibers = conditions: in vitro; cited from earlier work
[4] = test system: lung inflammation in a cystic fibrosis model; conditions: cystic fibrosis model in mice; cited from earlier work
[5] = Clinical safety trial of hyaluronan aerosol in COPD patients: safety endpoints; format: in vivo, human
Protocol: as §1
Eleven patients were recruited from 2 Centers: 9 patients from Research Associates in Tucson Ariz. and 2 patients from St. Luke's-Roosevelt Hospital Pulmonary Disease Center in New York. All patients fulfilled the diagnostic criteria of COPD with GOLD grades 2 and 3 with moderate airway obstruction (FEV1 above 40% of predicted) and at least a ten pack-year history of cigarette smoking. No patients were actively smoking at the time of recruitment and smoking cessation had occurred over one year prior to the study in all patients. Six patients were male […]. All were Caucasian. Three patients received placebo. Eight patients received hyaluronan CTX-100.
as §2

[6] = listed as aerosolized hyaluronan

hyaluronan
Sputum desmosine and isodesmosine level (elastic fiber breakdown; patient with history of smoking, start 6, single daily 20 minute inhalation of 0.05% hyaluronan, two weeks later): 1 nanogram/g protein
Sputum desmosine and isodesmosine level (elastic fiber breakdown; patient with pulmonary emphysema, start 20, 0.1% hyaluronan inhaled 20 minutes once daily, after 1 month): 10 nanograms/g of protein
Sputum desmosine and isodesmosine level (elastic fiber breakdown; same patient, 0.1% hyaluronan, twice daily 20 minute inhalation, two weeks later): 1 nanogram/g of protein
Sputum desmosine and isodesmosine level (elastic fiber breakdown; same patient, 20 minute inhalation every other day, two weeks later): 6 nanograms/g protein
Sputum desmosine and isodesmosine level (elastic fiber breakdown; same patient, returned to 20 minute inhalation every day, two weeks later): 1 nanogram/g protein
Pulmonary emphysema induced by tobacco smoke [1]: decrease the pulmonary emphysema induced in mice exposed to tobacco smoke
Tolerability of hypertonic saline [2]: improve tolerability of hypertonic saline
Severity of emphysema induced by elastase enzymes [3]: decrease the severity of emphysema induced by elastase enzymes
Blood levels of desmosine and isodesmosine (elastin degradation): significant reduction
Urine levels of desmosine and isodesmosine (elastin degradation): significant reduction
Levels of desmosine and isodesmosine in sputum (elastin degradation): statistically significant reduction; also recorded: Reductions
Levels of desmosine and isodesmosine in sputum (elastin degradation; [6]): statistically significant decline
Blood levels of desmosine and isodesmosine (elastin degradation; [6]): statistically significant decline
Urine levels of desmosine and isodesmosine (elastin degradation; [6]): statistically significant decline
Elastase degradation of elastin fibers (elastin fibers): block elastase degradation of elastin fibers in vitro
Lung inflammation [4]: reduce lung inflammation in a cystic fibrosis model in mice
Adverse events ([5]; 0.01% hyaluronan, 3 ml by aerosol, morning and night for 14 days): mild to moderate
Effect on EKG ([5]; 2 weeks of administration): no significant effect
Effect on routine laboratory procedures ([5]; 2 weeks of administration): no significant effect
Effect on spirometric indices ([5]; 2 weeks of administration): no significant effect
